Source: US8293768B2, “Organic compounds” (Novartis AG, priority 2006, dated 2012)

melting point [°C]	Structure (SMILES)
218 to 219	CCNC(=O)c1sc(N2CCN(Cc3ccc(OC(F)(F)F)cc3)C2=O)nc1C [Example 8.2, N-ethyl-4-methyl-2-(2-oxo-3-(4-(trifluoromethoxy)benzyl)imidazolidin-1-yl)thiazole-5-carboxamide]
236 to 238	CNC(=O)c1ccc(CN2CCN(c3nc(C)c(-c4cc(C)[nH]n4)s3)C2=O)cc1 [Example 40.2, N-methyl-4-((3-(4-methyl-5-(3-methyl-1H-pyrazol-5-yl)thiazol-2-yl)-2-oxoimidazolidin-1-yl)methyl)benzamide]
218 to 221	Cc1cc(-c2sc(N3CCN(Cc4ccc(F)cc4)C3=O)nc2C)n[nH]1 [Example 40.1, 1-(4-fluorobenzyl)-3-(4-methyl-5-(5-methyl-1H-pyrazol-3-yl)thiazol-2-yl)imidazolidin-2-one]
205 to 207	Cc1nc(N2CCN(Cc3ccc(F)cc3)C2=O)sc1C(=O)NCc1ncccn1 [Example 32.16, 2-(3-(4-fluorobenzyl)-2-oxoimidazolidin-1-yl)-4-methyl-N-(pyrimidin-2-ylmethyl)thiazole-5-carboxamide]
182 to 183	Cc1cc(-c2sc(N3CCN(Cc4ccc(C(=O)N5CCCCC5)cc4)C3=O)nc2C)n[nH]1 [Example 40, 1-(4-methyl-5-(3-methyl-1H-pyrazol-5-yl)thiazol-2-yl)-3-(4-(piperidine-1-carbonyl)benzyl)imidazolidin-2-one]
177 to 178	Cc1nc(N2CCN(Cc3ccc(F)cc3)C2=O)sc1C(=O)NCc1ccc(F)cc1 [Example 9.20, N-(4-fluorobenzyl)-2-(3-(4-fluorobenzyl)-2-oxoimidazolidin-1-yl)-4-methylthiazole-5-carboxamide]
128 to 131	Cc1cc(N2CCN(Cc3ccc(F)cc3)C2=O)sc1C(=O)NCc1cccs1 [Example 55.5, 5-(3-(4-fluorobenzyl)-2-oxoimidazolidin-1-yl)-3-methyl-N-(thiophen-2-ylmethyl)thiophene-2-carboxamide]
195 to 197	Cc1nc(N2CCN(Cc3ccc(C(F)(F)F)cc3)C2=O)sc1C(=O)O [Example 6.5, 4-methyl-2-(2-oxo-3-(4-(trifluoromethyl)benzyl)imidazolidin-1-yl)thiazole-5-carboxylic acid]

The remaining lines, values behind:

Structure (SMILES)	melting point [°C]
Cc1cc(-n2cnn(Cc3ccc(F)cc3)c2=O)sc1C(=O)NCc1ncco1 [Example 31.6, 5-(1-(4-fluorobenzyl)-5-oxo-1H-1,2,4-triazol-4(5H)-yl)-3-methyl-N-(oxazol-2-ylmethyl)thiophene-2-carboxamide]	163 to 165
Cc1cc(N2CCN(Cc3ccccc3)C2=O)sc1C(=O)NCc1cccnc1 [Example 15.1, 5-(3-benzyl-2-oxoimidazolidin-1-yl)-3-methyl-N-(pyridin-3-ylmethyl)thiophene-2-carboxamide]	130 to 131
Cc1nc(N2CCN(c3ccccc3)C2=O)sc1C(=O)NCc1ccccc1 [Example 7, N-benzyl-4-methyl-2-(2-oxo-3-phenylimidazolidin-1-yl)thiazole-5-carboxamide]	234 to 236
Cc1nc(N2CCN(CC3CCCCC3)C2=O)sc1C(=O)NCc1cccnc1 [Example 9.35, 2-(3-(cyclohexylmethyl)-2-oxoimidazolidin-1-yl)-4-methyl-N-(pyridin-3-ylmethyl)thiazole-5-carboxamide]	134 to 136
Cc1nc(N2CCN(Cc3cccc(C(F)(F)F)c3)C2=O)sc1C(=O)NCc1cccnc1 [Example 9.43, 4-methyl-2-(2-oxo-3-(3-(trifluoromethyl)benzyl)imidazolidin-1-yl)-N-(pyridin-3-ylmethyl)thiazole-5-carboxamide]	175 to 176
Cc1nc(-n2ccn(CCc3ccc(F)cc3)c2=O)sc1C(=O)NCc1cccnc1 [Example 17.1, 2-(3-(4-fluorophenethyl)-2-oxo-2,3-dihydro-1H-imidazol-1-yl)-4-methyl-N-(pyridin-3-ylmethyl)thiazole-5-carboxamide]	160 to 162
